The nature of data set [1]: activity coefficient (dimensionless); of the first substance listed, at infinite dilution; xn = mol fraction of the nth substance listed. To be noted: 101 kPa, Liquid, dilutor technique, x1 = 0.
The nature of data set [2]: excess molar enthalpy (molar enthalpy of mixing); xn = mol fraction of the nth substance listed. To be noted: 353.15 K, 101 kPa, Liquid, Flow calorimetry.

The record followed here is the NIST ThermoML archive (doi:10.1016/j.fluid.2012.11.003).

± gives the expanded uncertainty stated by the source.

Turning to `CO` [methanol] + CCOS(=O)(=O)[O-].CCn1cc[n+](C)c1, the activity coefficient in data set [1] (303.15 K) turned out to be 0.537 ± 0.044; in data set [1] (313.15 K), 0.419 ± 0.041; in data set [1] (323.15 K) it was 0.406 ± 0.041; in data set [1] (333.15 K) it was 0.41 ± 0.041; in data set [1] (343.15 K), 0.389 ± 0.04; in data set [1] (353.15 K), 0.339 ± 0.039.

On to `CCCO` [propan-1-ol] + CCn1cc[n+](C)c1.O=S(=O)([O-])O, for which the activity coefficient in data set [1] (323.15 K) amounted to 0.431 ± 0.041; in data set [1] (333.15 K) it was 0.338 ± 0.039; in data set [1] (343.15 K), 0.233 ± 0.039; in data set [1] (353.15 K), 0.196 ± 0.039.

For `CCO` [ethanol] + CCn1cc[n+](C)c1.COS(=O)(=O)[O-], the activity coefficient in data set [1] (323.15 K) came to 0.449 ± 0.042; in data set [1] (333.15 K), 0.398 ± 0.041; in data set [1] (343.15 K), 0.349 ± 0.039; in data set [1] (353.15 K), 0.303 ± 0.039.

Consider `CC(C)O` [propan-2-ol] + CCOS(=O)(=O)[O-].CCn1cc[n+](C)c1, for which the activity coefficient is 1.48 ± 0.1 in data set [1] (303.15 K); 1.31 ± 0.087 in data set [1] (313.15 K); 1.25 ± 0.082 in data set [1] (323.15 K); 1.04 ± 0.065 in data set [1] (333.15 K); 1.01 ± 0.062 in data set [1] (343.15 K); 0.966 ± 0.06 in data set [1] (353.15 K).

For `CCC(C)O` (stereo unspecified) [butan-2-ol] + CCOS(=O)(=O)[O-].CCn1cc[n+](C)c1, the activity coefficient in data set [1] (303.15 K) was 2.06 ± 0.18; in data set [1] (313.15 K) it was 1.83 ± 0.13; in data set [1] (323.15 K), 1.69 ± 0.12; in data set [1] (333.15 K), 1.56 ± 0.11; in data set [1] (343.15 K), 1.62 ± 0.11; in data set [1] (353.15 K), 1.39 ± 0.094.

Regarding `CCCCO` [butan-1-ol] + CCOS(=O)(=O)[O-].CCn1cc[n+](C)c1, the activity coefficient came out at 1.93 ± 0.14 in data set [1] (313.15 K); 1.65 ± 0.12 in data set [1] (323.15 K); 1.39 ± 0.093 in data set [1] (333.15 K); 1.37 ± 0.092 in data set [1] (343.15 K); 1.19 ± 0.077 in data set [1] (353.15 K).

As to `CC(C)O` [propan-2-ol] + CCn1cc[n+](C)c1.COS(=O)(=O)[O-], the activity coefficient in data set [1] (323.15 K) is 1.33 ± 0.089; in data set [1] (333.15 K) it was 1.17 ± 0.075; in data set [1] (343.15 K), 1.01 ± 0.062; in data set [1] (353.15 K) it was 0.84 ± 0.055.

`CC(C)O` [propan-2-ol] + CCn1cc[n+](C)c1.O=S(=O)([O-])O: the activity coefficient in data set [1] (323.15 K) came out at 0.577 ± 0.046; in data set [1] (333.15 K) it was 0.356 ± 0.04; in data set [1] (343.15 K) it was 0.278 ± 0.039; in data set [1] (353.15 K), 0.223 ± 0.039.

On to `CCCO` [propan-1-ol] + CCOS(=O)(=O)[O-].CCn1cc[n+](C)c1, for which the activity coefficient in data set [1] (303.15 K) was 1.31 ± 0.087; in data set [1] (313.15 K), 1.2 ± 0.078; in data set [1] (323.15 K), 1.03 ± 0.064; in data set [1] (333.15 K), 0.914 ± 0.058; in data set [1] (343.15 K), 0.855 ± 0.055; in data set [1] (353.15 K), 0.803 ± 0.054.

For the molecule `CCCO` [propan-1-ol] + CCn1cc[n+](C)c1.COS(=O)(=O)[O-], the activity coefficient in data set [1] (323.15 K) turned out to be 1.05 ± 0.066; in data set [1] (333.15 K), 0.975 ± 0.06; in data set [1] (343.15 K), 0.839 ± 0.055; in data set [1] (353.15 K) it was 0.705 ± 0.05.

For `CCC(C)O` (stereo unspecified) [butan-2-ol] + CCn1cc[n+](C)c1.COS(=O)(=O)[O-], the activity coefficient in data set [1] (323.15 K) worked out at 4.02 ± 0.36; in data set [1] (333.15 K), 3.11 ± 0.28; in data set [1] (343.15 K) it was 2.58 ± 0.23; in data set [1] (353.15 K), 2.24 ± 0.2.

Take `CCO` [ethanol] + CCn1cc[n+](C)c1.O=S(=O)([O-])O: the activity coefficient in data set [1] (313.15 K) is 0.426 ± 0.041; in data set [1] (323.15 K), 0.269 ± 0.039; in data set [1] (333.15 K), 0.177 ± 0.039; in data set [1] (343.15 K), 0.13 ± 0.039; in data set [1] (353.15 K) it was 0.116 ± 0.039.

As to `CCn1cc[n+](C)c1.COS(=O)(=O)[O-]` [1-ethyl-3-methylimidazolium methylsulfate] + CCO, the excess molar enthalpy in data set [2] (x2 = 0.0977) turned out to be 0.033 ± 0.000789 kcal/mol; in data set [2] (x2 = 0.1834), 0.0608 ± 0.00136 kcal/mol; in data set [2] (x2 = 0.249), 0.0835 ± 0.00184 kcal/mol; in data set [2] (x2 = 0.3794) it was 0.134 ± 0.00287 kcal/mol; in data set [2] (x2 = 0.5247), 0.185 ± 0.00406 kcal/mol; in data set [2] (x2 = 0.6059), 0.206 ± 0.00454 kcal/mol. Further, the excess molar enthalpy is 0.218 ± 0.00478 kcal/mol in data set [2] (x2 = 0.701); 0.209 ± 0.00454 kcal/mol in data set [2] (x2 = 0.7779); 0.183 ± 0.00406 kcal/mol in data set [2] (x2 = 0.8414); 0.14 ± 0.00311 kcal/mol in data set [2] (x2 = 0.8947); 0.091 ± 0.00198 kcal/mol in data set [2] (x2 = 0.9358); 0.0381 ± 0.000884 kcal/mol in data set [2] (x2 = 0.9754).

For `CCO` [ethanol] + CCOS(=O)(=O)[O-].CCn1cc[n+](C)c1, the activity coefficient in data set [1] (303.15 K) was determined as 0.866 ± 0.056; in data set [1] (313.15 K) it was 0.783 ± 0.053; in data set [1] (323.15 K), 0.703 ± 0.05; in data set [1] (333.15 K), 0.6 ± 0.046; in data set [1] (343.15 K), 0.554 ± 0.045; in data set [1] (353.15 K) it was 0.534 ± 0.044.

On to `CO` [methanol] + CCn1cc[n+](C)c1.COS(=O)(=O)[O-], for which the activity coefficient was 0.257 ± 0.039 in data set [1] (323.15 K), 0.203 ± 0.039 in data set [1] (333.15 K), 0.178 ± 0.039 in data set [1] (343.15 K) and 0.105 ± 0.039 in data set [1] (353.15 K).

Turning to `CO` [methanol] + CCn1cc[n+](C)c1.O=S(=O)([O-])O, the activity coefficient in data set [1] (323.15 K) worked out at 0.087 ± 0.039; in data set [1] (333.15 K), 0.078; in data set [1] (343.15 K) it was 0.058; in data set [1] (353.15 K), 0.041.

`CCCCO` [butan-1-ol] + CCn1cc[n+](C)c1.O=S(=O)([O-])O: the activity coefficient in data set [1] (323.15 K) turned out to be 0.758 ± 0.052; in data set [1] (333.15 K), 0.62 ± 0.047; in data set [1] (343.15 K) it was 0.43 ± 0.041.

For the molecule `CCCCO` [butan-1-ol] + CCn1cc[n+](C)c1.COS(=O)(=O)[O-], the activity coefficient was determined as 2.62 ± 0.23 in data set [1] (323.15 K), 2.4 ± 0.21 in data set [1] (333.15 K), 2.05 ± 0.18 in data set [1] (343.15 K) and 1.74 ± 0.12 in data set [1] (353.15 K).

Take `CCC(C)O` (stereo unspecified) [butan-2-ol] + CCn1cc[n+](C)c1.O=S(=O)([O-])O: the activity coefficient in data set [1] (323.15 K) was found to be 1.22 ± 0.079; in data set [1] (333.15 K), 0.76 ± 0.052; in data set [1] (343.15 K), 0.566 ± 0.045; in data set [1] (353.15 K) it was 0.452 ± 0.042.

Regarding `CCOS(=O)(=O)[O-].CCn1cc[n+](C)c1` [1-ethyl-3-methylimidazolium ethyl sulfate] + CCO, the excess molar enthalpy amounted to 0.0259 ± 0.000645 kcal/mol in data set [2] (x2 = 0.0627); 0.0446 ± 0.00103 kcal/mol in data set [2] (x2 = 0.1063); 0.0636 ± 0.00141 kcal/mol in data set [2] (x2 = 0.1471); 0.0845 ± 0.00186 kcal/mol in data set [2] (x2 = 0.1979); 0.109 ± 0.00239 kcal/mol in data set [2] (x2 = 0.267); 0.137 ± 0.00287 kcal/mol in data set [2] (x2 = 0.3288). The excess molar enthalpy in data set [2] (x2 = 0.4017) stood at 0.167 ± 0.00359 kcal/mol; in data set [2] (x2 = 0.4504), 0.181 ± 0.00382 kcal/mol; in data set [2] (x2 = 0.548), 0.206 ± 0.00454 kcal/mol; in data set [2] (x2 = 0.6281), 0.219 ± 0.00478 kcal/mol; in data set [2] (x2 = 0.7203), 0.219 ± 0.00478 kcal/mol; in data set [2] (x2 = 0.7937), 0.205 ± 0.0043 kcal/mol. In addition, the excess molar enthalpy in data set [2] (x2 = 0.8535) came to 0.174 ± 0.00382 kcal/mol; in data set [2] (x2 = 0.9032), 0.13 ± 0.00287 kcal/mol; in data set [2] (x2 = 0.9412), 0.0823 ± 0.00182 kcal/mol; in data set [2] (x2 = 0.9776), 0.0327 ± 0.000765 kcal/mol.
